From patent US7863499B2, “Model of infantile spasm syndrome” (Albert Einstein College of Medicine of Yeshiva University, priority 2007, dated 2011)

Test system: rat pups
Assay: Induction of spasm-like seizures in rat pups (video monitoring)
Assay type: in vivo
Conditions: PCPA only, five pups
Procedure: […] The pups were injected with DOX i.c.v. and LPS intracerebrally in the right centroparietal cortex at P3; PCPA was administered i.p. at P5. […] There were no sex differences and the data were combined.
Behavioral seizures and spasm-like episodes. […] Seven pups had recurrent seizures resembling spasms. Spasms were first observed at P7 in 60% of the pups. […] The spasms were characterized by the abrupt onset of flexion of the trunk with extension of the limbs at the height of the spasm (the sequence is shown in FIG. 2). In two pups, extension spasms were sometimes observed. The spasms lasted from 1 to 5 seconds.
Anesthesia. Rat pups were anesthetized with 2% isoflurane in 100% O2 continuously delivered by a small facemask, custom-fitted to the stereotaxic frame.
Injections of DOX and LPS. Both male and female rats were used. At P3, stereotaxic injections of DOX and LPS were performed using a 25 μL Hamilton syringe. DOX was injected into the right ventricle (AP=−1.0, ML=1.1, DV=−3.3, reference to bregma) and LPS into the right cerebral hemisphere (AP=−1.0, ML=1.0, DV=2.0, reference to bregma). The injection volume is 5 μl for DOX and 7 μl for LPS. The pups were allowed to recover before returning to the dam.
Titration of doses of agents used to induce spasms. […]

With `N[C@@H](Cc1ccc(Cl)cc1)C(=O)O` (racemic) [PCPA, p-chlorophenylalanine] the development of spasms was “none of those pups developed spasms”.
